Like-named read-outs stand apart in the source and are kept apart here.
What was measured:
[1] = test system: RKO MEK1 (Q56P/+) Clone 1; experiment: Single agent proliferation assay (CellTiter-Glo, 96 h); type: cell-based; conditions: RKO MEK1 Q56P/+ Cl.1
Protocol: (§1) For assessment of drug sensitivity in cell-line models of acquired resistance, drug sensitivity of dose-escalated A375 cells and isogenic RKO cells was assessed in 96-hour proliferation assays. […] For the A375 assays Alamar blue (ThermoFisher) 10% (v/v) was added and incubated for 4 h, and fluorescent product was then detected using a BMG FLUOstar.
(§2) RKO MEK1 Q56P Isogenic cells were produced by Horizon Discovery (Cambridge, UK; #HD 106-019) using a recombinant AAV-mediated gene targeting strategy. Briefly, rAAV virus was generated following transfection of the appropriate targeting vector and helper vectors in HEK293T cells, purified using an AAV purification kit (Virapur, San Diego, USA) and titrated using qPCR. Parental homozygous RKO cells (homozygous wild type for MEK1) were then infected with rAAV virus and clones that had integrated the selection cassette were identified by G418 selection and expanded. Correctly targeted clones that were heterozygous for knock-in of the MEK1 Q56P point mutation into a single allele were identified by PCR and sequencing.
(§3) Compounds were prepared from DMSO stocks to give the desired final concentrations. The final DMSO concentration was constant at 0.1%. […] CellTiter-Glo® reagent (Promega, Madison, Wis.) was added according to manufacturer's instructions and luminescence detected using the BMG FLUOstar plate reader (BMG Labtech, Ortenberg, Germany).

[2] = test system: RKO MEK1 (Q56P/+) Clone 2; experiment: as above; type: cell-based; conditions: RKO MEK1 Q56P/+ Cl.2
Protocol: as §1, §2, §3

RKO Parental = experiment: as above; type: cell-based
Protocol: as §1, §3

P38δ = P38δ (Homo sapiens, UniProt O15264); experiment: Kinase counter-screen, Ki; type: biochemical; conditions: apparent Ki
Source text: The ATP concentrations were approximately equal to the Km in all assays.

[3] = Phase I study: pharmacokinetic analysis; type: in vivo, human; conditions: for AUC(0-t) / Cmax: plasma
Protocol: Blood samples were collected prior to dosing, and then at 0.5 (±5 min), 1 (±5 min), 2 (±10 min), 4 (±10 min), 6 (±10 min), 8 (±10 min), and 12 (±2 hr) hours on Day 1 (Visit 2; baseline/initiation of treatment) and Day 15 (Visit 4; at steady state) after the morning dose. On Day 22, prior to dose administration, a final blood sample was collected for pharmacokinetic analyses. Urine samples were collected predose and at the 1- to 6-hour and 6- to 12-±2-hour intervals postdose on Days 1 and 15. […] Standard pharmacokinetic parameters were obtained using Phoenix WinNonlin (Pharsight) with a noncompartmental method. Relationship between dose and exposure was calculated using standard least-squares regression analysis.

A375 = experiment: Reverse Phase Protein Analysis (RPPA); type: cell-based, human; conditions: % change from DMSO (matched cell line)
In short: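 Cells were treated 6 h before lysis, with 0.1% (v/v) DMSO as control. Lysates were analysed by reverse-phase protein microarray. Protein changes are expressed as percentage change from DMSO-treated parental cells.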

Colo205 = experiment: Reverse Phase Protein Analysis (RPPA); type: cell-based, human; conditions: % change from DMSO (matched cell line)
Protocol: Control wells were treated with DMSO at 0.1% (v/v) for 6 hours prior to cell lysate generation. Samples were then analyzed using reverse-phase protein microarray technology (Theranostics Health).
Cell lines with common alterations in BRAF and RAS were assayed: BRAF^V600E mutant lines A375, Colo205, and HT29; KRAS^G12C-mutant cell line MIAPACa-2; KRAS^G13D-mutant cell line HCT116; and AN3Ca with atypical HRAS^F82L mutation.

Sequence of P38δ (O15264 whole entry): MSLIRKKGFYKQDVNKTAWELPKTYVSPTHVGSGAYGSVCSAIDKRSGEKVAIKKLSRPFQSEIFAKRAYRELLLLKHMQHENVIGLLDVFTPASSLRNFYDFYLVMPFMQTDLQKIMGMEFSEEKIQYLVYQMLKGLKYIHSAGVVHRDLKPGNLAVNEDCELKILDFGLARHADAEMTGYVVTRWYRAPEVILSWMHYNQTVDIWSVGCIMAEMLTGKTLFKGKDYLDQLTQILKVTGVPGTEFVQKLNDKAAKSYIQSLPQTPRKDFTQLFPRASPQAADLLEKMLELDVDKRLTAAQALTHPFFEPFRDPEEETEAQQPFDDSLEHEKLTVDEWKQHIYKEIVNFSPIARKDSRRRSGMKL

## CC(C)Nc1cc(-c2c[nH]c(C(=O)N[C@H](CO)c3cccc(Cl)c3)c2)c(Cl)cn1 [BVD-523]
[1]
  IC50: 170 nM
[2]
  IC50: 180 nM
RKO Parental
  IC50: 200 nM
P38δ
  Ki: 240 nM
[3]; first dose and steady state, all dose levels
  urinary excretion within 12 hours postdose: < 0.2 % of the dose
[3]; human, plasma and urine, oral, n≥3, read-out: mean renal clearance values
  CL renal: 0.248 to 0.5 mL/min
[3]; human, oral, 10 mg, 10 mg BID, Day 1, read-out: AUC0-12
  AUC(0-t): 220 ng·h/mL
[3]; human, oral, 10 mg, 10 mg BID, Day 1, read-out: Cmax
  Cmax: 48.2 ng/mL
[3]; human, oral, 10 mg, 10 mg BID, Day 15, read-out: AUC0-12
  AUC(0-t): 234 ng·h/mL
[3]; human, oral, 10 mg, 10 mg BID, Day 15, read-out: Cmax
  Cmax: 45.7 ng/mL
[3]; human, oral, 20 mg, 20 mg BID, Day 1, read-out: AUC0-12
  AUC(0-t): 91.7 ng·h/mL
[3]; human, oral, 20 mg, 20 mg BID, Day 1, read-out: Cmax
  Cmax: 14.9 ng/mL
[3]; human, oral, 20 mg, 20 mg BID, Day 15, read-out: AUC0-12
  AUC(0-t): 98.7 ng·h/mL
[3]; human, oral, 20 mg, 20 mg BID, Day 15, read-out: Cmax
  Cmax: 15.8 ng/mL
[3]; human, oral, 40 mg, 40 mg BID, Day 1, read-out: AUC0-12
  AUC(0-t): 614 ng·h/mL
[3]; human, oral, 40 mg, 40 mg BID, Day 1, read-out: Cmax
  Cmax: 100 ng/mL
[3]; human, oral, 40 mg, 40 mg BID, Day 15, read-out: AUC0-12
  AUC(0-t): 999 ng·h/mL
[3]; human, oral, 40 mg, 40 mg BID, Day 15, read-out: Cmax
  Cmax: 191 ng/mL
[3]; human, oral, 150 mg, 150 mg BID, Day 1, read-out: AUC0-12
  AUC(0-t): 817 ng·h/mL
[3]; human, oral, 150 mg, 150 mg BID, Day 1, read-out: Cmax
  Cmax: 133 ng/mL
[3]; human, oral, 150 mg, 150 mg BID, Day 15, read-out: AUC0-12
  AUC(0-t): 2770 ng·h/mL
[3]; human, oral, 150 mg, 150 mg BID, Day 15, read-out: Cmax
  Cmax: 326 ng/mL
[3]; human, oral, 300 mg, 300 mg BID, Day 1, read-out: AUC0-12 ± SD
  AUC(0-t): 4110 ± 1140 ng·h/mL
[3]; human, oral, 300 mg, 300 mg BID, Day 1, read-out: Cmax ± SD
  Cmax: 765 ± 234 ng/mL
[3]; human, oral, 300 mg, 300 mg BID, Day 15, read-out: AUC0-12 ± SD
  AUC(0-t): 4460 ± 2460 ng·h/mL
[3]; human, oral, 300 mg, 300 mg BID, Day 15, read-out: Cmax ± SD
  Cmax: 586 ± 257 ng/mL
[3]; human, oral, 600 mg, 600 mg BID, Day 1, read-out: AUC0-12 ± SD
  AUC(0-t): 2750 ± 1740 ng·h/mL
[3]; human, oral, 600 mg, 600 mg BID, Day 15, read-out: AUC0-12 ± SD
  AUC(0-t): 24400 ± 16200 ng·h/mL
[3]; human, oral, 600 mg, 600 mg BID, Day 15, read-out: Cmax ± SD
  Cmax: 2750 ± 170 ng/mL
[3]; human, oral, 750 mg, 750 mg BID, Day 1, read-out: AUC0-12 ± SD
  AUC(0-t): 10700 ng·h/mL
[3]; human, oral, 750 mg, 750 mg BID, Day 1, read-out: Cmax ± SD
  Cmax: 1450 ± 539 ng/mL
[3]; human, oral, 750 mg, 750 mg BID, Day 15, read-out: AUC0-12 ± SD
  AUC(0-t): 23300 ng·h/mL
[3]; human, oral, 750 mg, 750 mg BID, Day 15, read-out: Cmax ± SD
  Cmax: 2290 ng/mL
[3]; human, oral, 750 mg, Day 15, reduced from 750 mg to 450 mg/dose, read-out: AUC0-12, individual subject
  AUC(0-t): 10700 ng·h/mL
[3]; human, oral, 750 mg, Day 15, reduced from 750 mg to 450 mg/dose, read-out: Cmax, individual subject
  Cmax: 1300 ng/mL
[3]; human, oral, 900 mg, 900 mg BID, Day 1, read-out: AUC0-12 ± SD
  AUC(0-t): 10800 ng·h/mL
[3]; human, oral, 900 mg, 900 mg BID, Day 1, read-out: Cmax ± SD
  Cmax: 1430 ± 1010 ng/mL
[3]; human, oral, 900 mg, 900 mg BID, Day 15, read-out: AUC0-12 ± SD
  AUC(0-t): 15900 ng·h/mL
[3]; human, oral, 900 mg, 900 mg BID, Day 15, read-out: Cmax ± SD
  Cmax: 1720 ± 328 ng/mL
[3]; up to 600 mg BID
  dose-exposure relationship (Cmax and AUC): linear and dose proportional
A375
  Avg (4ebp1 T70): −31.82%
  Avg (Akt S473): 73.07%
  Avg (Akt): −14.03%
  Avg (Bad S136): 12.31%
  Avg (Bad S155): −21.9%
  Avg (Bak): −3.26%
  Avg (Bax): −6.98%
  Avg (Bcl 2): −12.55%
  Avg (Bcl2 S70): −7.91%
  Avg (Bcl 2 T56): −8.54%
  Avg (Bim): 14.57%
  Avg (CREB S133): −12.65%
  Avg (Caspase 3 CL D175): −8.06%
  Avg (Caspase 7 Cl D198): 3.18%
  Avg (Chk1): 16.94%
  Avg (Chk1 S345): −7.43%
  Avg (Cyclin D1): −81.45%
  Avg (ERK 1 2): −22.91%
  Avg (ERK 1 2 T202 Y204): 43.34%
  Avg (MAK1 S360): 3.35%
  Avg (Mcl1): 10.67%
  Avg (Raptor S792): −10.33%
  Avg (Raptor): −7.77%
  Avg (Rictor): −20.11%
  Avg (Stat1): 1.32%
  Avg (Stat3): 6.02%
  Avg (bad S112): −72.37%
  Avg (c Fos): 4.39%
  Avg (c Myc): 2.56%
  Avg (mTOR S2448): −27.87%
  Avg (mTOR S2481): −3.36%
  Avg (mTOR): 0.2%
  Avg (p70 S6 Kinase): −7.6%
  Avg (p90 RSK S380): −71%
  Avg(S6 Ribo Prot S235 236): −95.3%
  Avg(S6 Ribo Prot S240 244): −91.98%
  Avg(Tuberin TSC2 Y1571): −6.32%
  Avg(p70 S6 Kinase S371 S394): −8.58%
  Avg(p70 S6 Kinase T389 T412): −23.79%
Colo205
  Avg (4ebp1 T70): −36.35%
  Avg (Akt S473): −5.78%
  Avg (Akt): −3.85%
  Avg (Bad S136): 5.05%
  Avg (Bad S155): −18.18%
  Avg (Bak): 3.79%
  Avg (Bax): 0.28%
  Avg (Bcl 2): −0.13%
  Avg (Bcl2 S70): −10.2%
  Avg (Bcl 2 T56): −11.84%
  Avg (Bim): 41.73%
  Avg (CREB S133): −2.67%
  Avg (Caspase 3 CL D175): −3.18%
  Avg (Caspase 7 Cl D198): 6.76%
  Avg (Chk1): −2.86%
  Avg (Chk1 S345): −4.63%
  Avg (Cyclin D1): −23.65%
  Avg (ERK 1 2): −18.83%
  Avg (ERK 1 2 T202 Y204): 14.39%
  Avg (MAK1 S360): 14.69%
  Avg (Mcl1): −2.7%
  Avg (Raptor S792): 0.41%
  Avg (Raptor): −7.14%
  Avg (Rictor): −5.21%
  Avg (Stat1): 0.53%
  Avg (Stat3): −2.58%
  Avg (bad S112): −31.51%
  Avg (c Fos): −12.25%
  Avg (mTOR S2448): −23.51%
  Avg (mTOR S2481): −1.33%
  Avg (mTOR): 12.77%
  Avg (p70 S6 Kinase): 0.14%
  Avg (p90 RSK S380): −50.84%
  Avg(S6 Ribo Prot S235 236): −96.15%
  Avg(S6 Ribo Prot S240 244): −97.33%
  Avg(Tuberin TSC2 Y1571): −3.48%
  Avg(p70 S6 Kinase S371 S394): −18.11%
  Avg(p70 S6 Kinase T389 T412): −36.4%

— US20210038587A1, “METHODS AND COMPOSITIONS FOR TREATING NON-ERK MAPK PATHWAY INHIBITOR-RESISTANT CANCERS” (BIOMED VALLEY DISCOVERIES, INC., priority 2013, published 2021)
